In patent US20100099561A1, “HETEROBICYCLIC ALKYLTHIO-BRIDGED ISOXAZOLINES” (E.I. DU PONT DE NEMOURS AND COMPANY, priority 2008, published 2010):

Key:
Format in all cases: in vivo
[1] = tested on: large crabgrass (Digitaria sanguinalis); assay: Test A postemergence, large crabgrass; details: 0 to 100 scale (0 no effect, 100 complete control)
Method in brief: (§1)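 Ratings of 0–100 (0 no effect, 100 complete control) came from visual comparison with untreated controls after roughly ten days in a greenhouse. Plants in loam soil–sand blend were treated with compound in non-phytotoxic solvent plus surfactant, pre- or postemergence (one- to two-leaf stage).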

[2] = tested on: sunflower (common oilseed sunflower, Helianthus annuus); assay: Test B preemergence, sunflower; details: Preemergence, scale 0 to 100
Method in brief: (§2)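 After sowing in loam–sand, soil surfaces received the compound preemergence; greenhouse growth followed for 13–15 d. Control compared with untreated plants, scored 0–100.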

[3] = tested on: lambsquarters (Chenopodium album); assay: Test B preemergence, lambsquarters; details: scale 0 to 100
Excerpt: (§3) Seeds of plant species selected from blackgrass (Alopecurus myosuroides), downy bromegrass (Bromus tectorum), green foxtail (Setaria viridis), Italian ryegrass (Lolium multiflorum), wheat (Triticum aestivum), wild oat (Avena fatua), catchweed bedstraw (Galium aparine), bermudagrass (Cynodon dactylon), Surinam grass (Brachiaria decumbens), cocklebur (Xanthium strumarium), corn (Zea mays), large crabgrass (Digitaria sanguinalis), woolly cupgrass (Eriochloa villosa), giant foxtail (Setaria faberii), goosegrass (Eleusine indica), johnsongrass (Sorghum halepense), kochia (Kochia scoparia), lambsquarters (Chenopodium album), morningglory (Ipomoea coccinea), nightshade (eastern black nightshade, Solanum ptycanthum), yellow nutsedge (Cyperus esculentus), pigweed (Amaranthus retroflexus), ragweed (common ragweed, Ambrosia elatior), soybean (Glycine max), sunflower (common oilseed sunflower, Helianthus annuus), Russian thistle (Salsola kali), and velvetleaf (Abutilon theophrasti) were planted into a blend of loam soil and sand and treated preemergence with test compounds formulated in a non-phytotoxic solvent mixture which included a surfactant. Treated plants and controls were maintained in a greenhouse for 13 to 15 days, after which time all species were compared to controls and visually evaluated. Plant response ratings, summarized in Table B, are based on a scale of 0 to 100 where 0 is no effect and 100 is complete control. A dash (-) response means no test result.

[4] = tested on: velvetleaf (Abutilon theophrasti); assay: Test A postemergence, velvetleaf; details: 0 to 100 scale (0 no effect, 100 complete control)
Method in brief: as §1

[5] = tested on: barnyardgrass (Echinochloa crus-galli); assay: Test B flooded paddy test, barnyardgrass; details: Flood
Method in brief: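 Step one: raise plants to 2 leaves. Step two: flood pots 3 cm over the soil and apply compound into the water, keeping this depth. Step three: after 13–15 greenhouse days, score visually versus controls, 0–100, where 100 means complete control.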

[6] = tested on: goosegrass (Eleusine indica); assay: Test B preemergence, goosegrass; details: scale 0 to 100
Excerpt: as §3

[7] = tested on: cocklebur (Xanthium strumarium); assay: Test B preemergence, cocklebur; details: scale 0 to 100
Excerpt: as §3

[8] = tested on: morningglory (Ipomoea spp.); assay: Test A preemergence, morningglory; details: 0 to 100 scale (0 no effect, 100 complete control)
Method in brief: as §1

[9] = tested on: velvetleaf (Abutilon theophrasti); assay: Test B preemergence, velvetleaf; details: Preemergence, scale 0 to 100
Method in brief: as §2

corn (Zea mays) = assay: Test A preemergence, corn; details: 0 to 100 scale (0 no effect, 100 complete control)
Method in brief: as §1

[10] = tested on: giant foxtail (Setaria faberi); assay: Test A postemergence, giant foxtail; details: 0 to 100 scale (0 no effect, 100 complete control)
Method in brief: as §1

[11] = tested on: Surinam grass (Brachiaria decumbens); assay: Test B preemergence, Surinam grass; details: Preemergence, scale 0 to 100
Method in brief: as §2

[12] = tested on: morningglory (Ipomoea spp.); assay: Test A postemergence, morningglory; details: 0 to 100 scale (0 no effect, 100 complete control)
Method in brief: as §1

[13] = tested on: giant foxtail (Setaria faberi); assay: Test A preemergence, giant foxtail; details: 0 to 100 scale (0 no effect, 100 complete control)
Method in brief: as §1

[14] = tested on: downy bromegrass (Bromus tectorum); assay: Test B preemergence, downy bromegrass; details: scale 0 to 100
Excerpt: as §3

[15] = tested on: large crabgrass (Digitaria sanguinalis); assay: Test A preemergence, large crabgrass; details: 0 to 100 scale (0 no effect, 100 complete control)
Method in brief: as §1

soybean (Glycine max) = assay: Test B preemergence, soybean; details: Preemergence, scale 0 to 100
Method in brief: as §2

[16] = tested on: wheat (Triticum aestivum); assay: Test A preemergence, wheat; details: 0 to 100 scale (0 no effect, 100 complete control)
Method in brief: as §1

[17] = tested on: pigweed (Amaranthus retroflexus); assay: Test B preemergence, pigweed; details: scale 0 to 100
Excerpt: as §3

[18] = tested on: barnyardgrass (Echinochloa crus-galli); assay: Test A preemergence, barnyardgrass; details: 0 to 100 scale (0 no effect, 100 complete control)
Method in brief: as §1

[19] = 250 g ai/ha, scale 0 to 100 (0 no effect, 100 complete control)

Structure (SMILES): CC1(C)CC(S(=O)(=O)Cc2c(C(F)(F)C(F)(F)F)nc3n(c2=O)CCC3)=NO1 [Compound 22]
- Plant response rating, Crabgrass, Large ([1]; 125 g ai/ha): 70
- Plant response rating, Crabgrass, Large ([1]; 500 g ai/ha): 80
- Plant response rating, Sunflower ([2]; 16 g ai/ha): 0
- Plant response rating, Sunflower ([2]; 31 g ai/ha): 0
- Plant response rating, Sunflower ([2]; 62 g ai/ha): 0
- Plant response rating, Sunflower ([2]; 125 g ai/ha): 50
- Plant response rating, Lambsquarters ([3]; 16 g ai/ha): 0
- Plant response rating, Lambsquarters ([3]; 31 g ai/ha): 0
- Plant response rating, Lambsquarters ([3]; 62 g ai/ha): 70
- Plant response rating, Lambsquarters ([3]; 125 g ai/ha): 100
- Plant response rating, Velvetleaf ([4]; 125 g ai/ha): 20
- Plant response rating, Velvetleaf ([4]; 500 g ai/ha): 60
- Plant response rating, Barnyardgrass ([5]; 62 g ai/ha, scale 0 to 100): 0
- Plant response rating, Barnyardgrass [5, 19]: 0
- Plant response rating, Goosegrass ([6]; 16 g ai/ha): 30
- Plant response rating, Goosegrass ([6]; 31 g ai/ha): 80
- Plant response rating, Goosegrass ([6]; 62 g ai/ha): 100
- Plant response rating, Goosegrass ([6]; 125 g ai/ha): 100
- Plant response rating, Cocklebur ([7]; 16 g ai/ha): 0
- Plant response rating, Cocklebur ([7]; 31 g ai/ha): 0
- Plant response rating, Cocklebur ([7]; 62 g ai/ha): 0
- Plant response rating, Cocklebur ([7]; 125 g ai/ha): 0
- Plant response rating, Morningglory ([8]; 125 g ai/ha): 50
- Plant response rating, Morningglory ([8]; 500 g ai/ha): 80
- Plant response rating, Velvetleaf ([9]; 16 g ai/ha): 0
- Plant response rating, Velvetleaf ([9]; 31 g ai/ha): 0
- Plant response rating, Velvetleaf ([9]; 62 g ai/ha): 60
- Plant response rating, Velvetleaf ([9]; 125 g ai/ha): 100
- Plant response rating, Corn (corn (Zea mays); 125 g ai/ha): 0
- Plant response rating, Corn (corn (Zea mays); 500 g ai/ha): 0
- Plant response rating, Foxtail, Giant ([10]; 125 g ai/ha): 70
- Plant response rating, Foxtail, Giant ([10]; 500 g ai/ha): 80
- Plant response rating, Surinam Grass ([11]; 16 g ai/ha): 0
- Plant response rating, Surinam Grass ([11]; 31 g ai/ha): 0
- Plant response rating, Surinam Grass ([11]; 62 g ai/ha): 90
- Plant response rating, Surinam Grass ([11]; 125 g ai/ha): 95
- Plant response rating, Morningglory ([12]; 125 g ai/ha): 0
- Plant response rating, Morningglory ([12]; 500 g ai/ha): 50
- Plant response rating, Foxtail, Giant ([13]; 125 g ai/ha): 90
- Plant response rating, Foxtail, Giant ([13]; 500 g ai/ha): 100
- Plant response rating, Bromegrass, Downy ([14]; 16 g ai/ha): 0
- Plant response rating, Bromegrass, Downy ([14]; 31 g ai/ha): 0
- Plant response rating, Bromegrass, Downy ([14]; 62 g ai/ha): 0
- Plant response rating, Bromegrass, Downy ([14]; 125 g ai/ha): 60
- Plant response rating, Crabgrass, Large ([15]; 125 g ai/ha): 90
- Plant response rating, Crabgrass, Large ([15]; 500 g ai/ha): 100
- Plant response rating, Soybean (soybean (Glycine max); 16 g ai/ha): 0
- Plant response rating, Soybean (soybean (Glycine max); 31 g ai/ha): 0
- Plant response rating, Soybean (soybean (Glycine max); 62 g ai/ha): 0
- Plant response rating, Soybean (soybean (Glycine max); 125 g ai/ha): 0
- Plant response rating, Wheat ([16]; 125 g ai/ha): 0
- Plant response rating, Wheat ([16]; 500 g ai/ha): 50
- Plant response rating, Pigweed ([17]; 31 g ai/ha): 0
- Plant response rating, Pigweed ([17]; 125 g ai/ha): 100
- Plant response rating, Barnyardgrass ([18]; 125 g ai/ha): 80
- Plant response rating, Barnyardgrass ([18]; 500 g ai/ha): 90

Structure (SMILES): CC1(C)CC(S(=O)(=O)Cc2c(C(F)(F)F)nc3ccsn3c2=O)=NO1 [Compound 16]
- Plant response rating, Crabgrass, Large ([1]; 125 g ai/ha): 80
- Plant response rating, Crabgrass, Large ([1]; 500 g ai/ha): 90
- Plant response rating, Sunflower ([2]; 16 g ai/ha): 0
- Plant response rating, Sunflower ([2]; 31 g ai/ha): 0
- Plant response rating, Sunflower ([2]; 62 g ai/ha): 0
- Plant response rating, Sunflower ([2]; 125 g ai/ha): 0
- Plant response rating, Lambsquarters ([3]; 16 g ai/ha): 0
- Plant response rating, Lambsquarters ([3]; 31 g ai/ha): 0
- Plant response rating, Lambsquarters ([3]; 62 g ai/ha): 0
- Plant response rating, Lambsquarters ([3]; 125 g ai/ha): 98
- Plant response rating, Velvetleaf ([4]; 125 g ai/ha): 30
- Plant response rating, Velvetleaf ([4]; 500 g ai/ha): 60
- Plant response rating, Barnyardgrass ([5]; 62 g ai/ha, scale 0 to 100): 0
- Plant response rating, Barnyardgrass [5, 19]: 0
- Plant response rating, Goosegrass ([6]; 16 g ai/ha): 85
- Plant response rating, Goosegrass ([6]; 31 g ai/ha): 95
- Plant response rating, Goosegrass ([6]; 62 g ai/ha): 100
- Plant response rating, Goosegrass ([6]; 125 g ai/ha): 100
- Plant response rating, Cocklebur ([7]; 16 g ai/ha): 0
- Plant response rating, Cocklebur ([7]; 31 g ai/ha): 0
- Plant response rating, Cocklebur ([7]; 62 g ai/ha): 0
- Plant response rating, Cocklebur ([7]; 125 g ai/ha): 0
- Plant response rating, Morningglory ([8]; 125 g ai/ha): 70
- Plant response rating, Morningglory ([8]; 500 g ai/ha): 80
- Plant response rating, Velvetleaf ([9]; 16 g ai/ha): 0
- Plant response rating, Velvetleaf ([9]; 31 g ai/ha): 0
- Plant response rating, Velvetleaf ([9]; 62 g ai/ha): 0
- Plant response rating, Velvetleaf ([9]; 125 g ai/ha): 0
- Plant response rating, Corn (corn (Zea mays); 125 g ai/ha): 0
- Plant response rating, Corn (corn (Zea mays); 500 g ai/ha): 0
- Plant response rating, Foxtail, Giant ([10]; 125 g ai/ha): 80
- Plant response rating, Foxtail, Giant ([10]; 500 g ai/ha): 90
- Plant response rating, Surinam Grass ([11]; 16 g ai/ha): 0
- Plant response rating, Surinam Grass ([11]; 31 g ai/ha): 55
- Plant response rating, Surinam Grass ([11]; 62 g ai/ha): 95
- Plant response rating, Surinam Grass ([11]; 125 g ai/ha): 98
- Plant response rating, Morningglory ([12]; 125 g ai/ha): 0
- Plant response rating, Morningglory ([12]; 500 g ai/ha): 50
- Plant response rating, Foxtail, Giant ([13]; 125 g ai/ha): 90
- Plant response rating, Foxtail, Giant ([13]; 500 g ai/ha): 90
- Plant response rating, Bromegrass, Downy ([14]; 16 g ai/ha): 0
- Plant response rating, Bromegrass, Downy ([14]; 31 g ai/ha): 0
- Plant response rating, Bromegrass, Downy ([14]; 62 g ai/ha): 0
- Plant response rating, Bromegrass, Downy ([14]; 125 g ai/ha): 30
- Plant response rating, Crabgrass, Large ([15]; 125 g ai/ha): 90
- Plant response rating, Crabgrass, Large ([15]; 500 g ai/ha): 90
- Plant response rating, Soybean (soybean (Glycine max); 16 g ai/ha): 0
- Plant response rating, Soybean (soybean (Glycine max); 31 g ai/ha): 0
- Plant response rating, Soybean (soybean (Glycine max); 62 g ai/ha): 0
- Plant response rating, Soybean (soybean (Glycine max); 125 g ai/ha): 0
- Plant response rating, Wheat ([16]; 125 g ai/ha): 0
- Plant response rating, Wheat ([16]; 500 g ai/ha): 0
- Plant response rating, Pigweed ([17]; 31 g ai/ha): 0
- Plant response rating, Pigweed ([17]; 62 g ai/ha): 0
- Plant response rating, Pigweed ([17]; 125 g ai/ha): 100
- Plant response rating, Barnyardgrass ([18]; 125 g ai/ha): 50
- Plant response rating, Barnyardgrass ([18]; 500 g ai/ha): 80
